In ChEMBL document CHEMBL2203033, “Design and synthesis of novel DFG-out RAF/vascular endothelial growth factor receptor 2 (VEGFR2) inhibitors: 3. Evaluation of 5-amino-linked thiazolo[5,4-d]pyrimidine and thiazolo[5,4-b]pyridine derivatives” (Bioorg Med Chem, 2012):
Active and inactive are the calls of the source. The calls are words filed in the database; no cut-off is given here.

Assays:
[1] = Intrinsic clearance in human liver microsomes at 1 umol/L after 20 mins in presence of NADPH; assay type: ADME, Microsome; details: read-out: CLH
[2] = molecular target: T1, Serine/threonine-protein kinase B-raf (Homo sapiens, UniProt P15056, V600E); experiment: Inhibition of BRAF V600E mutant in human HT-29 cells assessed as reduction of […] phosphorylation; assay type: cell-based
[3] = molecular target: Vascular endothelial growth factor receptor 2 (Homo sapiens, UniProt P35968); experiment: Inhibition of VEGFR2
[4] = molecular target: T1, Serine/threonine-protein kinase B-raf; experiment: Inhibition of recombinant BRAF V600E mutant using […] and [gamma-32P]ATP as substrate after 30 mins by scintillation counting
[5] = Intrinsic clearance in mouse liver microsomes at 1 umol/L after 20 mins in presence of NADPH; assay type: ADME, Microsome; details: read-out: CLH
[6] = molecular target: Mitogen-activated protein kinase kinase kinase 1 (Homo sapiens, UniProt Q13233); experiment: Inhibition of MEKK1
[7] = Thermodynamic solubility of the compound in Japanese pharmacopoeia 2nd fluid at pH 6.8 presence of 20 mmol/L of bile acid; assay type: physicochemical; details: read-out: Therm_solubility
[8] = molecular target: Glycogen synthase kinase-3 beta (Homo sapiens, UniProt P49841); experiment: Inhibition of GSK3beta
[9] = molecular target: Mitogen-activated protein kinase 8 (Homo sapiens, UniProt P45983); experiment: Inhibition of JNK1
[10] = molecular target: Aurora kinase B (Homo sapiens, UniProt Q96GD4); experiment: Inhibition of aurora B
[11] = molecular target: Cyclin-dependent kinase 2 (Homo sapiens, UniProt P24941); experiment: Inhibition of CDK2
[12] = molecular target: Cyclin-dependent kinase 1 (Homo sapiens, UniProt P06493); experiment: Inhibition of CDK1
[13] = molecular target: Mitogen-activated protein kinase 3 (Homo sapiens, UniProt P27361); experiment: Inhibition of ERK1
[14] = molecular target: Serine/threonine-protein kinase Chk1 (Homo sapiens, UniProt O14757); experiment: Inhibition of CHK1
[15] = molecular target: Protein kinase C theta type (Homo sapiens, UniProt Q04759); experiment: Inhibition of PKCtheta
[16] = molecular target: Inhibitor of nuclear factor kappa-B kinase subunit beta (Homo sapiens, UniProt O14920); experiment: Inhibition of IKKbeta
[17] = molecular target: Insulin receptor (Homo sapiens, UniProt P06213); experiment: Inhibition of IR
[18] = molecular target: Mast/stem cell growth factor receptor Kit (Homo sapiens, UniProt P10721); experiment: Inhibition of c-Kit
[19] = molecular target: Angiopoietin-1 receptor (Homo sapiens, UniProt Q02763); experiment: Inhibition of TIE2
[20] = molecular target: Receptor tyrosine-protein kinase erbB-2 (Homo sapiens, UniProt P04626); experiment: Inhibition of HER2
[21] = molecular target: Platelet-derived growth factor receptor alpha (Homo sapiens, UniProt P16234); experiment: Inhibition of PDGFRalpha
[22] = molecular target: Platelet-derived growth factor receptor beta (Homo sapiens, UniProt P09619); experiment: Inhibition of PDGFRbeta
[23] = molecular target: Fibroblast growth factor receptor 3 (Homo sapiens, UniProt P22607); experiment: Inhibition of FGFR3
[24] = molecular target: RAF proto-oncogene serine/threonine-protein kinase (Homo sapiens, UniProt P04049); experiment: Inhibition of c-RAF
[25] = molecular target: Dual specificity mitogen-activated protein kinase kinase 1 (Homo sapiens, UniProt Q02750)
[26] = molecular target: Proto-oncogene tyrosine-protein kinase Src (Homo sapiens, UniProt P12931)
[27] = molecular target: Hepatocyte growth factor receptor (Homo sapiens, UniProt P08581)
[28] = tested on: Rattus norvegicus; experiment: Inhibition of BRAF in human HT-29 cells xenografted nude rat tumor assessed as reduction of ERK phosphorylation at 25 mg/kg, po; assay type: functional, organism-based; parameters: dose 25 mg/kg
[29] = tested on: Rattus norvegicus; experiment: Toxicity in human HT-29 cells xenografted nude rat at 25 mg/kg, po qd for 2 weeks; assay type: organism-based; parameters: dose 25 mg/kg, route oral; details: in vivo, 336 h
[30] = tested on: HT-29; experiment: Antitumor activity against human HT-29 cells xenografted in nude rat assessed as tumor regression at 25 mg/kg, po qd for 2 weeks; assay type: functional
[31] = Cmax in rat at 25 mg/kg, po; assay type: ADME, organism-based; parameters: dose 25 mg/kg, route oral; details: in vivo
[32] = Oral bioavailability in rat at 25 mg/kg; assay type: ADME, organism-based; details: in vivo
[33] = AUC (0 to 24 hrs) in rat at 25 mg/kg, po; assay type: ADME, organism-based; parameters: time < 24 hr, dose 25 mg/kg, route oral; details: plasma
[34] = Mean residence time in rat at 25 mg/kg, po; assay type: ADME, organism-based; parameters: dose 25 mg/kg, route oral; details: in vivo
[35] = Mean residence time in rat at 1 mg/kg, iv; assay type: ADME, organism-based; parameters: dose 1 mg/kg, route intravenous; details: in vivo
[36] = AUC (0 to 24 hrs) in rat at 1 mg/kg, iv; assay type: ADME, organism-based; parameters: time < 24 hr, dose 1 mg/kg, route intravenous; details: plasma
[37] = Total clearance in rat at 1 mg/kg, iv; assay type: ADME, organism-based; parameters: dose 1 mg/kg, route intravenous; details: in vivo
[38] = Volume of distribution at steady state in rat at 1 mg/kg, iv; assay type: ADME, organism-based; parameters: dose 1 mg/kg, route intravenous; details: in vivo, read-out: Vdss

T1 sequence (P15056 2-766 V600E limits assumed): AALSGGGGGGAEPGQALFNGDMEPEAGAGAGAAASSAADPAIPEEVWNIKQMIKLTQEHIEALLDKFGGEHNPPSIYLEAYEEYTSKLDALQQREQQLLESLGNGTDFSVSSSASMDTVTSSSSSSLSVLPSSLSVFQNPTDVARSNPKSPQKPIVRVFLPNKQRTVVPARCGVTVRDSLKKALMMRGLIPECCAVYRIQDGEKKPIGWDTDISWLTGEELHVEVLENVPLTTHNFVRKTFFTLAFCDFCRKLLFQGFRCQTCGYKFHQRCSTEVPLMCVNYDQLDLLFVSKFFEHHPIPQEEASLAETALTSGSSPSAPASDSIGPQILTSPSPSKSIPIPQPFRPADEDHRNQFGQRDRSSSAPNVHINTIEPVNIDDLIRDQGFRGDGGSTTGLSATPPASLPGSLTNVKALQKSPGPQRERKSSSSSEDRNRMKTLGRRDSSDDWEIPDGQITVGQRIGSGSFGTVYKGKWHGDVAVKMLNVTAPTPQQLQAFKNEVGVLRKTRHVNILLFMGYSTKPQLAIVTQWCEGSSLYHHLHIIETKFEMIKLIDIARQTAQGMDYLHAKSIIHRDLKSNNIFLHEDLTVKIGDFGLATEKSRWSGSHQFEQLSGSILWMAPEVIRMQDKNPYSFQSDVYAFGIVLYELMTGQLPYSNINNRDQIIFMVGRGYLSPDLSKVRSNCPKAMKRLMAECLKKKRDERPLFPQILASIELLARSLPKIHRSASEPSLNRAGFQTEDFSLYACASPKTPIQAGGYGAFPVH
Vascular endothelial growth factor receptor 2, sequence (P35968 whole entry): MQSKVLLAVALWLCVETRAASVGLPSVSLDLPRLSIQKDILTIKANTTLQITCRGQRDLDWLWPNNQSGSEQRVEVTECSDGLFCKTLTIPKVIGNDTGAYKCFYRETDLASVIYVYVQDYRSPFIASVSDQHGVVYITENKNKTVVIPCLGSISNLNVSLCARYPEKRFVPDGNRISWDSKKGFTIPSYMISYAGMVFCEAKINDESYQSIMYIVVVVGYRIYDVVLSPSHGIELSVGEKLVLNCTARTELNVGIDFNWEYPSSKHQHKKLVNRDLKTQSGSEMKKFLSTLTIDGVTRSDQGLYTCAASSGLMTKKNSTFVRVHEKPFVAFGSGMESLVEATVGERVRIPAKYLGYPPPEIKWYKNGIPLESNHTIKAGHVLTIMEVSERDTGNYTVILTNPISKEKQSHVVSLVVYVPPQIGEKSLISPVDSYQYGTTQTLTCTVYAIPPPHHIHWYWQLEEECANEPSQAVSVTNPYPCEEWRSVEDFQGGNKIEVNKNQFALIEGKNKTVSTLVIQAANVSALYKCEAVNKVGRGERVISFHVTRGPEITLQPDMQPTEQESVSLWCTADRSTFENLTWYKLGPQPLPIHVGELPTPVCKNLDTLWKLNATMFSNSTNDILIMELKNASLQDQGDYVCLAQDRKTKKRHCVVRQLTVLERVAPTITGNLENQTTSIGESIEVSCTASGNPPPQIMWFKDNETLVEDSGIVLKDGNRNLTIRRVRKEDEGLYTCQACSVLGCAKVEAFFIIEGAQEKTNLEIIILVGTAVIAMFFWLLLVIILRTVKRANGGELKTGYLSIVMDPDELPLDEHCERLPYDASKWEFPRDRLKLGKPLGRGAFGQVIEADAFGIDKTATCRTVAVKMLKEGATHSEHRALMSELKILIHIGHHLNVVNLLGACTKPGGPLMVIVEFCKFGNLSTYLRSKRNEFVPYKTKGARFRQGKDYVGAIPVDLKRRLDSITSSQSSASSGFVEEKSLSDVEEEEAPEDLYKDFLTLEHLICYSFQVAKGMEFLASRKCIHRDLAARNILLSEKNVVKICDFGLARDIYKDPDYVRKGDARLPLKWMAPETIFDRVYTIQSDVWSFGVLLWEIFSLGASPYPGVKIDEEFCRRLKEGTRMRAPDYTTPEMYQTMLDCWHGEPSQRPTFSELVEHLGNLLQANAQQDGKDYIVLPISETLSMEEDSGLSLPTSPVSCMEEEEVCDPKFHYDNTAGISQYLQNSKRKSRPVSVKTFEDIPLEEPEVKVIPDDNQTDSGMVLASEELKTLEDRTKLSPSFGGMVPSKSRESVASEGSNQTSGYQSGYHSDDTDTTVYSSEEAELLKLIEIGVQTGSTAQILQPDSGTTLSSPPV
Angiopoietin-1 receptor, sequence (Q02763 whole entry): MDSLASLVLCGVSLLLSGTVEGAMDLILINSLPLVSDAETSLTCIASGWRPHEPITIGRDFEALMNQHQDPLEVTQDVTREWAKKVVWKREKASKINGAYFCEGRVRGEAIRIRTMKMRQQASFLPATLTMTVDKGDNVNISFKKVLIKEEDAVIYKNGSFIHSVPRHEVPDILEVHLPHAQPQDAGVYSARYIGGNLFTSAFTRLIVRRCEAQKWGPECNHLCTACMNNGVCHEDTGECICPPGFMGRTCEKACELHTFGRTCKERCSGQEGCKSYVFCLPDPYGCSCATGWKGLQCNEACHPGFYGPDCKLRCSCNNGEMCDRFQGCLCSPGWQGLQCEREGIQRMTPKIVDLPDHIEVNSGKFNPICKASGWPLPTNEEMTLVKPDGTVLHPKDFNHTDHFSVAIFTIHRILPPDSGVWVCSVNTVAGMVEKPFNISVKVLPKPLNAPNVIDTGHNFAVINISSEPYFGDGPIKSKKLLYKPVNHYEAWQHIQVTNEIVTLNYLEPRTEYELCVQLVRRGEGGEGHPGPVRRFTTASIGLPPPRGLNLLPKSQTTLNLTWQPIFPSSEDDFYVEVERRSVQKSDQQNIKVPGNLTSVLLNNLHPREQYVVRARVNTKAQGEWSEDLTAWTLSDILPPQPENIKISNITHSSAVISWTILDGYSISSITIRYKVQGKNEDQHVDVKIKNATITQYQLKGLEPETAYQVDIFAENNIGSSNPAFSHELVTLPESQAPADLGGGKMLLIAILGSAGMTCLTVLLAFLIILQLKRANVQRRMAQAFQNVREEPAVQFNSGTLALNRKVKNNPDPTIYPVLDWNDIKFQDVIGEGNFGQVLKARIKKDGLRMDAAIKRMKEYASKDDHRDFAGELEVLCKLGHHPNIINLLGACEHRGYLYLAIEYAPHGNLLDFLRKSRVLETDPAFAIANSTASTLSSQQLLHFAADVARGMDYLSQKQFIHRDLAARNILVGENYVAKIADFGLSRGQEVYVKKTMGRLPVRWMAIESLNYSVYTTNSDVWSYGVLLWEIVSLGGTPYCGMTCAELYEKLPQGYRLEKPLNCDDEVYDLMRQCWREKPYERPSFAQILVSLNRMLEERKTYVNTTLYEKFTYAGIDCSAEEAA
Cyclin-dependent kinase 1, sequence (P06493 whole entry): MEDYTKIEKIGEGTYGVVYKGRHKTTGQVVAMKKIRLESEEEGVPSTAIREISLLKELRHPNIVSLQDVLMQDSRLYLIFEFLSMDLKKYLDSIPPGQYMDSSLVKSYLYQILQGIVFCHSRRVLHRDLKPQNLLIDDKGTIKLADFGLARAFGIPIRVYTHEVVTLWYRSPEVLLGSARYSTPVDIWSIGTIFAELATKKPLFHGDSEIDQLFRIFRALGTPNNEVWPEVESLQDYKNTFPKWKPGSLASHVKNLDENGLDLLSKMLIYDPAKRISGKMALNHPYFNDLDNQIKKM
Serine/threonine-protein kinase Chk1, sequence (O14757 whole entry): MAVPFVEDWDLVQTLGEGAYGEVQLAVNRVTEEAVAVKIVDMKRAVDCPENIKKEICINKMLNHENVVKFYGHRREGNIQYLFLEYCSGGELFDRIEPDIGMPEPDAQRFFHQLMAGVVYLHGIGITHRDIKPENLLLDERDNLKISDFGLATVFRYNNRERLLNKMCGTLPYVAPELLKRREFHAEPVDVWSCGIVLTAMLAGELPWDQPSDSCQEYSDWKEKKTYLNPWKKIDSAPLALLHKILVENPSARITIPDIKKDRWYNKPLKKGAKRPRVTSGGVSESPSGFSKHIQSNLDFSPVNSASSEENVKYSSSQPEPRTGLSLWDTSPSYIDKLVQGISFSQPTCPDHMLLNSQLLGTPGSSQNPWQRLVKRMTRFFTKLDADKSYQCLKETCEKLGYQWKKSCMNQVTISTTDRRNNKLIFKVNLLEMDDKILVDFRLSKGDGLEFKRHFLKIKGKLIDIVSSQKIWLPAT
Aurora kinase B, sequence (Q96GD4 whole entry): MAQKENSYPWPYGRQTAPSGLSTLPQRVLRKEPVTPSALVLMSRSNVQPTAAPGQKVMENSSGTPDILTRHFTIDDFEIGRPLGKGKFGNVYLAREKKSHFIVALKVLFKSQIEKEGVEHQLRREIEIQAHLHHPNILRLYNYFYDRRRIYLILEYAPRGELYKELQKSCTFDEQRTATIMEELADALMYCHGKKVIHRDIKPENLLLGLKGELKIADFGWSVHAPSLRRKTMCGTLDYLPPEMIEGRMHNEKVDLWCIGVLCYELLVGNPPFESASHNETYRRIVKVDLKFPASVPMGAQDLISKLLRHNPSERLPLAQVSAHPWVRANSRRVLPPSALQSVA
Dual specificity mitogen-activated protein kinase kinase 1, sequence (Q02750 whole entry): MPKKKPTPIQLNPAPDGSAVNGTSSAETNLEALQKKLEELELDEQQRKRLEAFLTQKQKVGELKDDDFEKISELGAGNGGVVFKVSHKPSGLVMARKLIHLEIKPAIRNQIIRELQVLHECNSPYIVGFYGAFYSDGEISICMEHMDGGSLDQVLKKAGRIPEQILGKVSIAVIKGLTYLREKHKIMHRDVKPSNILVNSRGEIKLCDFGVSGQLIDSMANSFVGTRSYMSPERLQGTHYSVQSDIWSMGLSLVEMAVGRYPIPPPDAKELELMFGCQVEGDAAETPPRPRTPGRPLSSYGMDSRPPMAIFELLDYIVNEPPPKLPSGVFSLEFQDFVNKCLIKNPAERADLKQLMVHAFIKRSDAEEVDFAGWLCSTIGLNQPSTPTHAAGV

Compound: CC(=O)Nc1nc2cnc(Nc3cc(NC(=O)c4cccc(CC(C)(C)C#N)c4)ccc3C)nc2s1
- microsomal CLint at 1 µM [1]: 56 µL/min/mg
- IC50 [2]: 150 nM
- IC50 [3]: 300 nM
- IC50 [4]: 100 nM

Compound: CC(=O)Nc1nc2ccc(N(C)c3ccc(F)c(NC(=O)c4cccc(OC(C)(C)C#N)c4)c3)nc2s1
- microsomal CLint at 1 µM [5]: 25 µL/min/mg
- microsomal CLint at 1 µM [1]: 22 µL/min/mg
- IC50 [2]: 30 nM

Compound: CN(c1ccc(F)c(NC(=O)c2cccc(OC(C)(C)C#N)c2Cl)c1)c1ccc2nc(NC(=O)C3CC3)sc2n1 [listing 1 of 2 here]
- IC50 [6]: > 10000 nM
- solubility thermodynamic [7]: 18 µg/mL
- IC50 [8]: > 10000 nM
- IC50 [9]: > 10000 nM
- IC50 [10]: 4000 nM
- IC50 [11]: > 10000 nM
- IC50 [12]: 3700 nM
- IC50 [13]: > 10000 nM
- IC50 [14]: > 10000 nM
- IC50 [15]: > 10000 nM
- IC50 [16]: 8100 nM
- IC50 [17]: > 10000 nM
- IC50 [18]: 430 nM
- IC50 [19]: 840 nM
- IC50 [20]: 1200 nM
- IC50 [21]: 43 nM
- IC50 [22]: 91 nM
- IC50 [23]: 86 nM
- IC50 [24]: 23 nM
- microsomal CLint at 1 µM [5]: 32 µL/min/mg
- microsomal CLint at 1 µM [1]: 25 µL/min/mg
- IC50 [25]: 1000 nM
- IC50 [26]: 130 nM
- IC50 [27]: > 10000 nM

Compound: CC(=O)Nc1nc2cnc(Nc3cc(NC(=O)c4cccc(CCC#N)c4)ccc3C)nc2s1
- microsomal CLint at 1 µM [1]: 35 µL/min/mg
- IC50 [2]: > 500 nM
- IC50 [3]: 410 nM
- IC50 [4]: 51 nM

Compound: CC(C)(C#N)Oc1cccc(C(=O)Nc2cc(Nc3ccc4nc(NC(=O)C5CC5)sc4n3)ccc2F)c1Cl
- solubility thermodynamic [7]: 0.91 µg/mL
- IC50 [2]: 87 nM
- IC50 [3]: 64 nM
- IC50 [4]: 15 nM

Compound: CC(=O)Nc1nc2cnc(Nc3cc(NC(=O)c4cccc(OC(C)(C)C#N)c4)ccc3C)nc2s1
- IC50 [2]: 88 nM
- IC50 [3]: 510 nM
- IC50 [4]: 73 nM

Compound: CN(c1ccc(F)c(NC(=O)c2cccc(OC(C)(C)C#N)c2Cl)c1)c1ccc2nc(NC(=O)C3CC3)sc2n1.O=S(=O)(O)O
- solubility thermodynamic [7]: 35 µg/mL

Compound: CC(=O)Nc1nc2ccc(N(C)c3ccc(F)c(NC(=O)c4cccc(OC(C)(C)C#N)c4Cl)c3)nc2s1
- microsomal CLint at 1 µM [5]: 55 µL/min/mg
- microsomal CLint at 1 µM [1]: 45 µL/min/mg
- IC50 [2]: 22 nM

Compound: CN(c1ccc(F)c(NC(=O)c2cccc(OC(C)(C)C#N)c2Cl)c1)c1ccc2nc(NC(=O)C3CC3)sc2n1 [listing 2 of 2 here]
- inhibition [28]: Active

Compound: CC(=O)Nc1nc2cnc(Nc3cc(NC(=O)c4cccc(C5(C#N)CC5)c4Cl)ccc3C)nc2s1
- microsomal CLint at 1 µM [1]: 73 µL/min/mg
- IC50 [2]: 120 nM
- IC50 [3]: 340 nM
- IC50 [4]: 91 nM

Compound: CN(c1ccc(F)c(NC(=O)c2cccc(OC(C)(C)C#N)c2Cl)c1)c1ccc2nc(NC(=O)C3CC3)sc2n1.Cl
- solubility thermodynamic [7]: 31 µg/mL

Compound: CN(c1ccc(F)c(NC(=O)c2cccc(OC(C)(C)C#N)c2Cl)c1)c1ccc2nc(NC(=O)C3CC3)sc2n1.O.O=S(=O)(O)c1ccccc1
- Activity [29]: Non-toxic
- T/C [30]: -70%
- Cmax [31]: 660 ng/mL
- bioavailability [32]: 38.4%
- AUC(0-t) at 24 h [33]: 5770 ng·h/mL
- MRT [34]: 5.26 h
- MRT [35]: 3.13 h
- AUC(0-t) at 24 h [36]: 600 ng·h/mL
- clearance [37]: 29.2 mL/min/kg
- Vd [38]: 5.52 L/kg
- solubility thermodynamic [7]: 37 µg/mL
